Measurements: ChEMBL document CHEMBL1795217, “New vasorelaxant indole alkaloids, villocarines A-D from Uncaria villosa” (Bioorg Med Chem, 2011)
Activity calls are given as the source filed them.

Legend:
Aorta [1] = assay: Vasorelaxant activity in endothelium denuded Wistar rat thoracic aortic rings assessed as inhibition of phenylephrine-induced contraction at 30 uM in presence of Ca2+-free medium pre-incubated with 1 uM phenylephrine abd 1 uM nicardipine
Aorta [2] = assay: Vasorelaxant activity in Wistar rat thoracic aortic rings with endothelium assessed as inhibition of phenylephrine-induced contraction at 30 uM measured 10 to 30 mins within compound dosing; format: functional, tissue-based
Aorta [3] = assay: Vasorelaxant activity in endothelium denuded Wistar rat thoracic aortic rings assessed as inhibition of phenylephrine-induced contraction at 30 uM; format: functional, tissue-based
Aorta [4] = assay: Vasorelaxant activity in endothelium denuded Wistar rat thoracic aortic rings assessed as inhibition of calcium-induced contraction at 30 uM in presence of Ca2+-free K+-rich medium; format: functional, tissue-based

Measured: Activity

C/C=C1/CN2CCc3c([nH]c4ccccc34)[C@H]2C[C@@H]1/C(=C\OC)C(=O)OC
active: all assays above
